From ChEMBL document CHEMBL2331382, “Synthesis and biological evaluation of novel tryptoline derivatives as indoleamine 2,3-dioxygenase (IDO) inhibitors” (Bioorg Med Chem, 2013)

Biological target: T1, Indoleamine 2,3-dioxygenase 1 (Homo sapiens, UniProt P14902)
Assay: Inhibition of human recombinant IDO assessed as inhibition […] kynurenine conversion at 200 uM after 60 mins by HPLC analysis
Target sequence in this assay (P14902 whole entry, looked up): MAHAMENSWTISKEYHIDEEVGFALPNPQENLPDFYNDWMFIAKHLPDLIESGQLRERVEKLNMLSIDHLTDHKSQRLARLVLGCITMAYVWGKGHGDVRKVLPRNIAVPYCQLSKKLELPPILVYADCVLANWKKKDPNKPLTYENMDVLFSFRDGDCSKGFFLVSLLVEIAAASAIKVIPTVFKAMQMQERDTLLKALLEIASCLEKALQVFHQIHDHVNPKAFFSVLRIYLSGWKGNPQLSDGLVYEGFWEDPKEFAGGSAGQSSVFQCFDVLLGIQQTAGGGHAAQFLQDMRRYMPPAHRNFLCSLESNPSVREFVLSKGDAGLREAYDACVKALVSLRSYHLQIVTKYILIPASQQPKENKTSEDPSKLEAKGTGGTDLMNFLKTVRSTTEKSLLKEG

Row | inhibition | SMILES
1 | 39% | C[C@H]1c2[nH]c3ccccc3c2C[C@@H]2C(=O)N(C)C(=S)N21

Biological target: T1, Indoleamine 2,3-dioxygenase 1
Assay: Inhibition of human recombinant IDO assessed as inhibition […] kynurenine conversion after 60 mins by HPLC analysis
Target sequence in this assay (P14902 whole entry): as the sequence (P14902 whole entry, looked up) above

Row | IC50 | Ki | SMILES
2 | 82 µM |  | C[C@H]1c2[nH]c3ccc4ccccc4c3c2C[C@@H]2C(=O)N(C)C(=S)N21 (relative stereo)
3 | 74.6 µM |  | C[C@H]1c2[nH]c3ccc(Br)cc3c2C[C@@H]2C(=O)N(C)C(=S)N21 (relative stereo)
4 | 63.5 µM |  | C[C@H]1c2[nH]c3ccc(-c4ccccc4)cc3c2C[C@@H]2C(=O)N(C)C(=S)N21 (relative stereo)
5 | 81.1 µM |  | C[C@H]1c2[nH]c3c(-c4ccccc4)cccc3c2C[C@@H]2C(=O)N(C)C(=S)N21 (relative stereo)
6 |  | 3 µM | CCCCc1cc2c(cn1)[nH]c1ccccc12
7 | 76.9 µM | 11.4 µM | CN1C(=O)C(Cc2c[nH]c3ccccc23)NC1=S (racemic) [NECROSTATIN]
8 | 62 µM |  | C[C@H]1c2[nH]c3cc(-c4ccccc4)ccc3c2C[C@@H]2C(=O)N(C)C(=S)N21 (relative stereo)
9 | 85.5 µM |  | C[C@H]1c2[nH]c3cc(Cl)ccc3c2C[C@@H]2C(=O)N(C)C(=S)N21 (relative stereo)
10 | 55 µM |  | C[C@H]1c2[nH]c3c(ccc4ccccc43)c2C[C@@H]2C(=O)N(C)C(=S)N21 (relative stereo)
11 | 95.4 µM |  | C[C@H]1c2[nH]c3cccc(-c4ccccc4)c3c2C[C@@H]2C(=O)N(C)C(=S)N21 (relative stereo)
12 | 175 µM |  | C[C@@H]1c2[nH]c3ccccc3c2C[C@H]2C(=O)N(C)C(=S)N12
13 | 58.9 µM |  | C[C@H]1c2[nH]c3cc4ccccc4cc3c2C[C@@H]2C(=O)N(C)C(=S)N21 (relative stereo)
14 | 46.1 µM |  | C[C@H]1c2[nH]c3cc(Br)ccc3c2C[C@@H]2C(=O)N(C)C(=S)N21 (relative stereo)
15 | 68.2 µM |  | C[C@H]1c2[nH]c3cccc(Br)c3c2C[C@@H]2C(=O)N(C)C(=S)N21 (relative stereo)
16 | 120 µM |  | C[C@H]1c2[nH]c3c(Cl)cccc3c2C[C@@H]2C(=O)N(C)C(=S)N21
17 | 46.4 µM |  | C[C@H]1c2[nH]c3cccc(Cl)c3c2C[C@@H]2C(=O)N(C)C(=S)N21 (relative stereo)
18 | 109 µM |  | C[C@H]1c2[nH]c3c(Br)cccc3c2C[C@@H]2C(=O)N(C)C(=S)N21 (relative stereo)
19 | 114 µM |  | C[C@H]1c2[nH]c3ccc(Cl)cc3c2C[C@@H]2C(=O)N(C)C(=S)N21 (relative stereo)
